Assay results: patent US20240024324A1, “KINASE INHIBITOR COMBINATIONS FOR CANCER TREATMENT” (Merck Patent GmbH, priority 2020, published 2024)

What was measured:
GSC11 [1] = experiment: GSC lines: sensitivity in vitro (IC50); type: cell-based; conditions: GSC11 line in vitro
Description: (§1) FIG. 1: In vitro analyses in GSC lines. (A) Western blot analysis of protein expression; (B) IC50 of M2698; (C) IC50 of pimasertib; and (D) apoptotic GSC11, GSC7-2, and GSC17 cells after treatment with M2698, pimasertib, or M2698+pimasertib combination. Single agents were tested at their IC50; half the IC50 of each compound was used for the combination.
(§2) All GSC lines expressed Akt. Relatively high pAkt expression in GSC17, GSC7-2, GSC231, GSC11, GSC20, GSC6-27, and GSC8-11 lines compared with GSC272 and GSC267 (FIG. 1A).

GSC17 [2] = experiment: GSC lines: sensitivity in vitro (IC50); type: cell-based; conditions: GSC17 line in vitro
Description: as §1, §2

GSC20 [3] = experiment: GSC lines: sensitivity in vitro (IC50); type: cell-based; conditions: GSC20 line
Description: as §1, §2

GSC231 [4] = experiment: GSC lines: sensitivity in vitro (IC50); type: cell-based; conditions: GSC231 line in vitro
Description: as §1, §2

GSC6-27 [5] = experiment: GSC lines: sensitivity in vitro (IC50); type: cell-based; conditions: GSC6-27 line in vitro
Description: as §1, §2

GSC7-2 [6] = experiment: GSC lines: sensitivity in vitro (IC50); type: cell-based; conditions: GSC7-2 line in vitro
Description: as §1, §2

GSC8-11 = experiment: GSC lines: sensitivity in vitro (IC50); type: cell-based; conditions: GSC8-11 line in vitro
Description: as §1, §2

GSC11 [7] = experiment: Induction of apoptosis in GSC lines in vitro; type: cell-based
Description: (§3) FIG. 1: In vitro analyses in GSC lines. (A) Western blot analysis of protein expression; (B) IC50 of M2698; (C) IC50 of pimasertib; and (D) apoptotic GSC11, GSC7-2, and GSC17 cells after treatment with M2698, pimasertib, or M2698+pimasertib combination. […]
(§4) Induction of apoptosis by M2698, pimasertib, and the combination was measured in three of five GSC lines that were sensitive to M2698 in vitro.

GSC17 [8] = experiment: Induction of apoptosis in GSC lines in vitro; type: cell-based
Description: as §3, §4

GSC7-2 [9] = experiment: Induction of apoptosis in GSC lines in vitro; type: cell-based
Description: as §3, §4

GSC11 [10] = experiment: Orthotopic GSC xenograft model; type: in vivo, mice
Description: (§5) The in vivo effects of M2698 and pimasertib, alone and in combination, were assessed in the GSC models after orthotopic implantation into mice. Treatment duration and time of euthanasia post-implantation was 5-10 weeks. Endpoints were expression of PD markers pS6 and pERK, proliferation marker Ki67, apoptosis as measured by TUNEL, tumor volume and survival.

GSC17 [11] = experiment: Orthotopic GSC xenograft model; type: in vivo, mice
Description: as §5

GSC20 [12] = experiment: Orthotopic GSC xenograft model; type: in vivo, mice
Description: as §5

GSC231 [13] = experiment: Orthotopic GSC xenograft model; type: in vivo, mice
Description: as §5

GSC272 = experiment: Orthotopic GSC xenograft model; type: in vivo, mice
Description: as §5

GSC6-27 [14] = experiment: Orthotopic GSC xenograft model; type: in vivo, mice
Description: as §5

GSC7-2 [15] = experiment: Orthotopic GSC xenograft model; type: in vivo, mice
Description: as §5

[16] = tested on: Non-Small Lung Cancer (NSCLC) Brain Metastases PDX; experiment: PDX models of NSCLC brain metastases; type: in vivo
[17] = tested on: Her2+/HR− Breast Cancer PDX; experiment: PDX models of Her2+/HR- breast cancer; type: in vivo
[18] = tested on: human cholangiocarcinoma cancer PDX; experiment: PDX models of cholangiocarcinoma; type: in vivo, mice; conditions: 20 mg/kg each agent QD PO
Text: The objective of this experiment was to evaluate the antitumor activity of M2698 alone and in combination with Pimasertib in a panel of 13 Patient-Derived Xenograft models representing human cholangiocarcinoma cancer derived from Chinese patients in immune-deficient mice.
Vehicle: 0.5% Methocel/0.25% Tween20 in Milli-Q Water. Tumors from three untreated mice were collected as satellite samples when reached a tumor volume between 300-500 mm3.

Colorectal Cancer PDX = experiment: 75 PDX models of colorectal cancer; type: in vivo; conditions: CRC PDX; M2698 25 mg/kg po qd, Pimasertib 20 mg/kg po qd, Cetuximab 20 mg/kg ip q2w
Text: Of the 75 models, 25 were wild type, 25 KRas mutant, and 25 BRaf mutant.

SCCHN PDX = experiment: 38 PDX models of SCCHN, 1+1 screen; type: in vivo, mouse; conditions: 38 models, M2698 25 mg/kg PO QDx28, Cetuximab 30 mg/kg IP 2wklyx4
Description: 46 SCCHN PDX models were run in a 1+1 scheme (one mouse per treatment group). […] With the adjustment to the cancellation, 38 models were completed. […] After implantation, treatments began when average tumor volume reached ˜200 mm^3 for each model. Tumor volumes were measured for each model until the control tumor reached ˜1200 mm^3 at which time all animals for that model were euthanized.

p70S6K = p70S6K (Homo sapiens, UniProt P23443); conditions: variety of cell-based assays; cited from earlier work
p70S6K, sequence (P23443 whole entry): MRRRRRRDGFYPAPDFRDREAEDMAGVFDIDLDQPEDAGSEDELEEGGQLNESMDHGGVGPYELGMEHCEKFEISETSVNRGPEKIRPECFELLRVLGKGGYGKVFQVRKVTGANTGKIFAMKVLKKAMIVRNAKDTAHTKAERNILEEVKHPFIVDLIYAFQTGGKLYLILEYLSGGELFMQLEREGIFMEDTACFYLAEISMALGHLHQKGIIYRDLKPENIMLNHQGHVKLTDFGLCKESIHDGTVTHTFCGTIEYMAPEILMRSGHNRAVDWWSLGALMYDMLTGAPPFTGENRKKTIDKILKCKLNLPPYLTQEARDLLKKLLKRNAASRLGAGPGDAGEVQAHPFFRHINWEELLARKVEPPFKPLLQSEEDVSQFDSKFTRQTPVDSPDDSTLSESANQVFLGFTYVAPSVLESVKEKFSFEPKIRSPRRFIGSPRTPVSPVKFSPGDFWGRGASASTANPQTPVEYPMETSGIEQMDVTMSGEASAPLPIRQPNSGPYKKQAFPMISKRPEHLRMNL

Akt = conditions: variety of cell-based assays; cited from earlier work
cancer cell lines = conditions: broad panel of cancer cell lines; cited from earlier work
[19] = in vivo; cited from earlier work
human GBM = conditions: orthotopically implanted models of human GBM; cited from earlier work

## NC(=O)c1cccc2c(N[C@H](CN3CCC3)c3ccc(Cl)c(C(F)(F)F)c3)ncnc12 [M2698, 4-[(S)-2-Azetidin-1-yl-1-(4-chloro-3-trifluoromethyl-phenyl)-ethylamino]-quinazoline-8-carboxylic acid amide]
GSC11 [1]
  IC50: < 2000 nM
GSC17 [2]
  IC50: < 2000 nM
GSC20 [3]
  sensitivity in vitro: insensitivity
GSC231 [4]
  IC50: < 2000 nM
GSC6-27 [5]
  IC50: < 2000 nM
GSC7-2 [6]
  IC50: < 2000 nM
GSC8-11
  IC50: < 2000 nM
GSC11 [7]; GSC11, monotherapy at 2×IC50
  apoptotic percentage: 62%
GSC11 [7]; GSC11, monotherapy at the IC50
  apoptotic percentage: 56%
GSC17 [8]; GSC17, monotherapy at 2×IC50
  apoptotic percentage: 12%
GSC17 [8]; GSC17, monotherapy at the IC50
  apoptotic percentage: 11%
GSC7-2 [9]; GSC7-2, monotherapy at 2×IC50
  apoptotic percentage: 17%
GSC7-2 [9]; GSC7-2, monotherapy at the IC50
  apoptotic percentage: 13%
GSC11 [10]; GSC11, PD marker
  pERK expression in orthotopic tumor: reduced pERK
  pS6 expression in orthotopic tumor: significantly reduced pS6
GSC11 [10]; GSC11 orthotopic, vs vehicle
  tumor volume / tumor growth: had a trend to do so
GSC17 [11]; GSC17, PD marker
  pERK expression in orthotopic tumor: reduced pERK
  pS6 expression in orthotopic tumor: significantly reduced pS6
GSC17 [11]; GSC17 orthotopic, vs vehicle
  tumor volume / tumor growth: significantly inhibited tumor growth
GSC17 [11]; GSC17 tumor sections, compared to vehicle
  proliferation (Ki67 by immunohistochemistry): significantly reduced proliferation
GSC20 [12]; GSC20, PD marker
  pS6 expression in orthotopic tumor: lack of significant response
GSC20 [12]; GSC20 orthotopic, vs vehicle
  tumor volume / tumor growth: had not responded
GSC231 [13]; GSC231, PD marker
  pERK expression in orthotopic tumor: reduced pERK
  pS6 expression in orthotopic tumor: significantly reduced pS6
GSC231 [13]; GSC231 orthotopic, vs vehicle
  median survival: prolonged survival
  tumor volume / tumor growth: significantly inhibited tumor growth
GSC272; GSC272, PD marker
  pERK expression in orthotopic tumor: reduced pERK
  pS6 expression in orthotopic tumor: significantly reduced pS6
GSC272; GSC272 orthotopic, vs vehicle
  median survival: prolonged survival
  tumor volume / tumor growth: significantly inhibited tumor growth
GSC6-27 [14]; GSC6-27, PD marker
  pERK expression in orthotopic tumor: reduced pERK
  pS6 expression in orthotopic tumor: significantly reduced pS6
GSC6-27 [14]; GSC6-27 orthotopic, vs vehicle
  tumor volume / tumor growth: significantly inhibited tumor growth
GSC7-2 [15]; GSC7-2, PD marker
  pERK expression in orthotopic tumor: reduced pERK
  pS6 expression in orthotopic tumor: significantly reduced pS6
GSC7-2 [15]; GSC7-2 orthotopic, vs vehicle
  tumor volume / tumor growth: significantly inhibited tumor growth
GSC7-2 [15]; GSC7-2 tumor sections, compared to vehicle
  proliferation (Ki67 by immunohistochemistry): significantly reduced proliferation
GSC7-2 [15]; GSC7-2 xenografts, after 10 weeks
  number of apoptotic cells/field: 52.17±25.20 cells/field
GSC7-2 [15]; GSC7-2 xenografts, at 7.5 weeks
  apoptosis in xenografts vs control: Neither M2698, pimasertib, nor combination treatment significantly affected apoptosis
[16]
  tumor control rate (TCR): 5%
[17]
  tumor volume over the duration of the experiment: stasis of the tumor volume
[18]
  tumor stasis, number of tumor samples: 2/12
  tumor stasis, share of tumor samples: 17%
Colorectal Cancer PDX
  tumor control rate (TCR): 15%
  tumor control rate (TCR), models controlled/models: 11/74
SCCHN PDX
  Models with an Overall Response (“RECIST”): 7/38
  Partial response (number of models): 0
  Tumor Progression (number of models): 31
  Tumor Stasis (number of models): 7
  tumor control rate (TCR): 18%
p70S6K
  inhibition of p70S6K: highly potent
Akt
  inhibition of Akt: highly potent
Cancer cell lines
  anti-tumor activity: potent anti-tumor activity
[19]
  blood-brain barrier penetration: crosses the blood-brain barrier
Human GBM
  survival: prolongs survival
  tumor growth: reduces tumor growth
